Values of other authors in patent publication US20120214870A1, “METHODS FOR DIAGNOSIS AND TREATMENT OF CHRONIC FATIGUE SYNDROME” (UNIVERSITY OF SOUTH AUSTRALIA, priority 2009, published 2012).
Entries after “also recorded” stand apart in the source; their conditions may differ.

Legend:
CPT-I = conditions: Yoon et al., 2003; Amengual et al., 2008

Q: Which “fatigue severity in CFS patients” value (CFS patients; after 2 months of supplementation (Plioplys and Plioplys, 1997)) does the source give for `C[N+](C)(C)C[C@H](O)CC(=O)[O-]` [LC, L-carnitine] here?
A: The value was “significantly reduce”.

Q: And the “CPT-I expression or activity” value (CPT-I)?
A: Its value is “increase; also recorded: upregulate”.

Q: For `CC1=C(/C=C/C(C)=C/C=C/C(C)=C/C(=O)O)C(C)(C)CCC1` [all-trans retinoic acid, reference compound], which “CPT-I expression or activity” value (CPT-I) is on record?
A: Its value is “upregulate”.

Q: With `CCC(=O)O[C@H](CC(=O)[O-])C[N+](C)(C)C` [C3, propionyl-L-carnitine] as the compound, how does the “general and physical fatigue” value (CFS patients; administration (Vermeulen & Scholte, 2004)) read?
A: The value was “significant improvements”.

Q: Which “mental fatigue and attention concentration” value (CFS patients; supplementation (Vermeulen & Scholte, 2004; Malaguarnera et al. 2008)) does the source give for `CC(=O)O[C@H](CC(=O)[O-])C[N+](C)(C)C` [C2, acetyl-L-carnitine] here?
A: The value was “significant improvements”.
